The values that follow come from PubChem BioAssay (NCI).

Each structure is given as a SMILES string.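 Cultured in 96-well plates, cells were exposed to test compound for 48 hours across five concentrations. At the TGI there is no net growth.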

Test systems include HL-60(TB) leukemia; DU-145 prostate; RPMI-8226 leukemia; UO-31 renal; SNB-19 CNS; SF-295 CNS; HT29 colon; MDA-MB-435; A498 renal; MOLT-4 leukemia; OVCAR-8 ovarian.
Assay in all cases: NCI tumour cell line growth inhibition, 48 h

With `COc1c2cc([N+](=O)[O-])cc1CNC(=O)CN1CCOCCOCCN(CCOCCOCC1)CC(=O)NC2`, the TGI in the assay with HL-60(TB) leukemia, with DU-145 prostate, in the assay with RPMI-8226 leukemia, in the assay on UO-31 renal, with SNB-19 CNS and in the assay on SF-295 CNS was greater than 100 µM each time. Besides, the TGI in the assay on HT29 colon, in the assay with MDA-MB-435, with A498 renal, in the assay with MOLT-4 leukemia and in the assay on OVCAR-8 ovarian was greater than 100 µM each time.

Consider `CCCCNC1CCC2(SCCS2)c2[nH]c3ccccc3c21` (configuration not stated), for which the TGI in the assay on HL-60(TB) leukemia was 8.05 µM; with DU-145 prostate it was greater than 93.8 µM; with RPMI-8226 leukemia, greater than 43.1 µM; with UO-31 renal, greater than 89.4 µM; with SNB-19 CNS, greater than 100 µM; with SF-295 CNS, greater than 100 µM. The TGI in the assay with HT29 colon was greater than 100 µM; in the assay with MDA-MB-435 it was greater than 49.6 µM; in the assay on A498 renal it was 76.7 µM; with MOLT-4 leukemia it was 33.5 µM; with OVCAR-8 ovarian, 66.3 µM.

As for `OCC1OC(c2scc3c(=S)nc[nH]c23)C(O)C1O` (configuration not stated), the TGI is 21.4 µM in the assay on HL-60(TB) leukemia; 19.5 µM in the assay on DU-145 prostate; 58 µM in the assay with RPMI-8226 leukemia; greater than 100 µM in the assay with UO-31 renal; greater than 100 µM in the assay on SNB-19 CNS; greater than 92.8 µM in the assay with SF-295 CNS. Further, the TGI in the assay on HT29 colon was 70.1 µM; in the assay with MDA-MB-435 it was greater than 100 µM; in the assay with A498 renal, greater than 54.1 µM; in the assay with MOLT-4 leukemia it was 48.4 µM; in the assay on OVCAR-8 ovarian, 39.6 µM.

As for `CC[C@@]1(O)C(=O)OCc2c1cc1n(c2=O)Cc2c-1nc1ccccc1c2/C=N\NC(=O)C(N)CC(C)C` (some centres not stated), the TGI in the assay with HL-60(TB) leukemia is greater than 100 µM; with DU-145 prostate, greater than 100 µM; with RPMI-8226 leukemia, 3.71 µM; in the assay with UO-31 renal, 0.201 µM; in the assay on SNB-19 CNS it was greater than 100 µM; with SF-295 CNS it was 0.694 µM. Moreover, the TGI with HT29 colon is greater than 100 µM; in the assay on MDA-MB-435, 2.8 µM; with A498 renal, 0.263 µM; with MOLT-4 leukemia, 0.106 µM; in the assay with OVCAR-8 ovarian it was 1.44 µM.

As for `O=C1C=CC2CCC1C2` (configuration not stated), the TGI in the assay with HL-60(TB) leukemia is greater than 100 µM; in the assay with DU-145 prostate, greater than 100 µM; in the assay on RPMI-8226 leukemia, greater than 100 µM; with UO-31 renal it was greater than 100 µM; with SNB-19 CNS, 96.3 µM; in the assay on SF-295 CNS it was greater than 100 µM. The TGI in the assay on HT29 colon is greater than 100 µM; in the assay with MDA-MB-435 it was 61.5 µM; with A498 renal, greater than 100 µM; with MOLT-4 leukemia, greater than 100 µM; with OVCAR-8 ovarian, greater than 100 µM.

Regarding `CCOc1ccc2nc(NC(=O)C(=O)C(C(=O)c3ccccc3-c3ccccc3)C3OC(=O)c4ccccc43)sc2c1` (configuration not stated), the TGI in the assay with HL-60(TB) leukemia was 68.7 µM; in the assay with DU-145 prostate, 56.1 µM; in the assay with RPMI-8226 leukemia it was 52.4 µM; in the assay on UO-31 renal, 52.8 µM; with SNB-19 CNS it was 36.3 µM; in the assay on SF-295 CNS it was greater than 93.8 µM. In addition, the TGI is 43.6 µM in the assay with HT29 colon; 65.1 µM in the assay with MDA-MB-435; 48.1 µM in the assay with A498 renal; 99.6 µM with MOLT-4 leukemia; 25.7 µM in the assay on OVCAR-8 ovarian.

For `CNC(=O)c1ccccc1-[s+]1c2ccccc2c(=O)n1C` (configuration not stated), the TGI in the assay with HL-60(TB) leukemia, with DU-145 prostate, in the assay on RPMI-8226 leukemia, in the assay on UO-31 renal, in the assay on SNB-19 CNS and with SF-295 CNS was greater than 100 µM in each case. Further, the TGI in the assay with HT29 colon, in the assay on MDA-MB-435, with A498 renal, in the assay with MOLT-4 leukemia and with OVCAR-8 ovarian was greater than 100 µM throughout.

Consider `OCCOc1ccc(-c2cc(-c3ccccn3)nc(-c3ccccn3)c2)cc1`, for which the TGI in the assay with HL-60(TB) leukemia is 0.494 µM; in the assay with DU-145 prostate it was greater than 30.5 µM; with RPMI-8226 leukemia, greater than 96.7 µM; in the assay on UO-31 renal it was 1 µM; with SNB-19 CNS it was greater than 100 µM; in the assay with SF-295 CNS, greater than 100 µM. Further, the TGI in the assay with HT29 colon was greater than 100 µM; with MDA-MB-435 it was greater than 100 µM; with A498 renal it was 17 µM; in the assay on MOLT-4 leukemia it was 22.6 µM; in the assay on OVCAR-8 ovarian it was 2.6 µM.

`Nc1nc2c(=O)c3ccccc3sc2s1`: the TGI in the assay on HL-60(TB) leukemia, in the assay on DU-145 prostate, with RPMI-8226 leukemia, in the assay with UO-31 renal, in the assay with SNB-19 CNS and in the assay with SF-295 CNS was greater than 100 µM in each case. Further, the TGI was greater than 100 µM in the assay with HT29 colon; greater than 100 µM with MDA-MB-435; greater than 100 µM in the assay with A498 renal; greater than 100 µM in the assay on MOLT-4 leukemia; 50.7 µM with OVCAR-8 ovarian.

In the case of `Cc1ccc(C)n1-c1ccccc1C1SCCCS1`, the TGI in the assay on HL-60(TB) leukemia, in the assay on DU-145 prostate, with RPMI-8226 leukemia, in the assay with UO-31 renal, in the assay on SNB-19 CNS and in the assay with SF-295 CNS was greater than 100 µM in each case. Besides, the TGI in the assay with HT29 colon, in the assay with MDA-MB-435, in the assay on A498 renal, in the assay on MOLT-4 leukemia and with OVCAR-8 ovarian was greater than 100 µM throughout.

With `O=C(Cc1ccccc1)NCCc1ccc(O)c(O)c1`, the TGI in the assay with HL-60(TB) leukemia is 51.9 µM; with DU-145 prostate it was greater than 100 µM; with RPMI-8226 leukemia, greater than 100 µM; in the assay with UO-31 renal, greater than 100 µM; with SNB-19 CNS it was greater than 100 µM; in the assay with SF-295 CNS, greater than 100 µM. The TGI is greater than 100 µM in the assay on HT29 colon; 33.8 µM in the assay on MDA-MB-435; greater than 100 µM in the assay on A498 renal; greater than 100 µM with MOLT-4 leukemia; greater than 100 µM with OVCAR-8 ovarian.

With `O=C(O)[C@H]1[C@@H](C2CCCCC2)O[C@@H](C2CCCCC2)O[C@H]1C(F)(F)F`, the TGI in the assay with HL-60(TB) leukemia was 62.6 µM; in the assay with DU-145 prostate, greater than 100 µM; in the assay with RPMI-8226 leukemia it was 45.3 µM; with UO-31 renal, 66.2 µM; in the assay with SNB-19 CNS it was 81.3 µM; in the assay on SF-295 CNS, 39.5 µM. For the same compound, the TGI was 44 µM in the assay with HT29 colon; 35.5 µM with MDA-MB-435; 35.9 µM in the assay on A498 renal; 45 µM in the assay on MOLT-4 leukemia; 45.5 µM with OVCAR-8 ovarian.
